According to patent US20220213210A1, “COMBINATION THERAPY OF MULTIPLE SCLEROSIS COMPRISING A CD20 LIGAND” (MABION SA, priority 2017, published 2022):
Counter-ions that a name gives are not always drawn.

System: MOG-induced experimental allergic encephalomyelitis (EAE) murine model
Experiment: MOG-induced experimental allergic encephalomyelitis (EAE) murine model, clinical score 0-15
Assay type: in vivo, Mouse/C57BL/6J
Conditions: dimethyl fumarate in therapeutic dose, 49 mg/kg PO bi-daily, Days 0-35 (Group 11)
Source text: FIG. 1: Combination of MabionCD20DP and teriflunomide. MabionCD20DP and teriflunomide have been administered to an experimental allergic encephalomyelitis (EAE) mouse model. The MOG (myelin oligodendrocyte glycoprotein)-induced EAE murine model consists of a sensitization period, induced by the single SC injection of MOG emulsified in CFA (complete Freund's adjuvant) on Day 0, followed by IP supplemental immunostimulation with PT carried out once at the time of EAE induction and once again 48 hours later.
FIG. 2: Combination of MabionCD20DP and dimethyl fumarate. MabionCD20DP and dimethyl fumarate have been administered to an experimental allergic encephalomyelitis (EAE) mouse model. […]
Throughout the 36-day study, general clinical examinations were performed and recorded if any unexpected abnormalities are observed.
Body weight loss can be the first sign of disease initiation, while a sudden marked weight gain tends to accompany remission of EAE symptoms. Therefore, determination of individual body weights of animals was made shortly before EAE induction on Study Day 0 and was monitored on a daily basis throughout the 35-day observation period. […]

## COC(=O)/C=C/C(=O)OC [dimethyl fumarate]
  disease parameters (EAE), FIG. 2: reduction of the disease parameters
